# From patent US20180021361A1, “COMBINATION DRUG TREATMENT FOR HEPATITIS C INFECTION” (JANSSEN PHARMACEUTICALS, INC., priority 2016, published 2018)
# “Also recorded” adds a separate entry of the source.
# Columns and labels:
# [1] = Phase-1 drug-drug interaction study, plasma PK in healthy volunteers
# Protocol: A drug-drug interaction study (DDI) study is a study designed to investigate whether a drug alters the pharmacokinetics of another drug or drugs or their metabolites.
# Compound (III) Subjects received 800 mg of Compound (III) once daily from Days 1-3, Days 11-13, and Days 21-23. PK blood samples for determination of Compound (III) and metabolite concentrations were collected in reference to the Day 3, Day 13, and Day 23 doses.
# Simeprevir—Subjects received 150 mg of Simeprevir (SMV) once daily from Days 4-23. PK blood samples for determination of SMV concentrations were collected in reference to the Day 10, Day 13, Day 20, and Day 23 doses.
# Odalasvir—Subjects received a loading dose of 150 mg on Day 14, and 50 mg of Odalasvir once daily from Days 15-23. PK blood samples for determination of Odalasvir concentrations were collected in reference to the Day 20 and Day 23 doses.
# Compound (III)—Subjects received 800 mg of Compound (III) once daily from Days 1-3, Days 11-13 and Days 21-23. PK blood samples for determination of Compound (III) and metabolite concentrations were collected in reference to the Day 3, Day 13, and Day 23 doses.
# Simeprevir—Subjects receive 150 mg of SMV once daily from Days 4-23. PK blood samples for determination of SMV concentrations were collected in reference to the Day 20 and Day 23 doses.
# Odalasvir—Subjects receive a loading dose of 150 mg on Day 4, and 50 mg of Odalasvir once daily from Days 5-23. PK blood samples for determination of Odalasvir concentrations were collected in reference to the Day 10, Day 13, Day 20, and Day 23 doses.
# A primary objective was to evaluate the effect of multiple oral doses of Odalasvir (alone), Simeprevir (alone), and Odalasvir and Simeprevir on the multiple oral dose PK of Compound (III) (and certain metabolites thereof, such as the major metabolites in systemic circulation) in healthy volunteers. Other objectives were to evaluate the safety and tolerability of multiple oral doses of Compound (III) when administered alone and in combination with single and multiple oral doses of Odalasvir and/or Simeprevir in healthy volunteers; to determine the potential effect of Compound of Compound (III) and/or Odalasvir on the steady-state PK of Simeprevir in healthy volunteers; to determine the potential effect of Compound of Compound (III) and/or Simeprevir on the steady state PK of Odalasvir in healthy volunteers.
# Various other PK parameters were estimated including: […], t1/2, Tmax, Tlast, CL/F, Vz/F, and λz.
# Odalasvir: 150 mg loading dose; 50 mg for the remainder of the study period.
# [2] = Phase 2a open-label combination study, pharmacokinetics; assay type: in vivo, human
# Protocol: A randomized, Phase 2a, open-label study was carried out to evaluate the safety, pharmacokinetics and efficacy of the combination of Compound (III), Odalasvir and Simeprevir in Genotype 1 treatment-naïve subjects with chronic hepatitis C. Other treatment-naïve subjects included Genotype 2, 3, 4, 5 and 6. The aim of the study was to determine the efficacy, pharmacokinetics (PK), and safety of Compound (III)+Odalasvir±SMV in HCV-infected subjects. […] Efficacy, PK and safety evaluations were conducted during and through 24 weeks post dosing. Up to 15 cohorts were enrolled; data was generated from cohorts that have completed dosing.
# [3] = prior drug-drug interaction study, Rosuvastatin substrate of OATPs & BCRP; cited from earlier work
# [4] = target: P-gp (Homo sapiens, UniProt P08183); details: efflux transporter; cited from earlier work
# Chain of P-gp (P08183 whole entry): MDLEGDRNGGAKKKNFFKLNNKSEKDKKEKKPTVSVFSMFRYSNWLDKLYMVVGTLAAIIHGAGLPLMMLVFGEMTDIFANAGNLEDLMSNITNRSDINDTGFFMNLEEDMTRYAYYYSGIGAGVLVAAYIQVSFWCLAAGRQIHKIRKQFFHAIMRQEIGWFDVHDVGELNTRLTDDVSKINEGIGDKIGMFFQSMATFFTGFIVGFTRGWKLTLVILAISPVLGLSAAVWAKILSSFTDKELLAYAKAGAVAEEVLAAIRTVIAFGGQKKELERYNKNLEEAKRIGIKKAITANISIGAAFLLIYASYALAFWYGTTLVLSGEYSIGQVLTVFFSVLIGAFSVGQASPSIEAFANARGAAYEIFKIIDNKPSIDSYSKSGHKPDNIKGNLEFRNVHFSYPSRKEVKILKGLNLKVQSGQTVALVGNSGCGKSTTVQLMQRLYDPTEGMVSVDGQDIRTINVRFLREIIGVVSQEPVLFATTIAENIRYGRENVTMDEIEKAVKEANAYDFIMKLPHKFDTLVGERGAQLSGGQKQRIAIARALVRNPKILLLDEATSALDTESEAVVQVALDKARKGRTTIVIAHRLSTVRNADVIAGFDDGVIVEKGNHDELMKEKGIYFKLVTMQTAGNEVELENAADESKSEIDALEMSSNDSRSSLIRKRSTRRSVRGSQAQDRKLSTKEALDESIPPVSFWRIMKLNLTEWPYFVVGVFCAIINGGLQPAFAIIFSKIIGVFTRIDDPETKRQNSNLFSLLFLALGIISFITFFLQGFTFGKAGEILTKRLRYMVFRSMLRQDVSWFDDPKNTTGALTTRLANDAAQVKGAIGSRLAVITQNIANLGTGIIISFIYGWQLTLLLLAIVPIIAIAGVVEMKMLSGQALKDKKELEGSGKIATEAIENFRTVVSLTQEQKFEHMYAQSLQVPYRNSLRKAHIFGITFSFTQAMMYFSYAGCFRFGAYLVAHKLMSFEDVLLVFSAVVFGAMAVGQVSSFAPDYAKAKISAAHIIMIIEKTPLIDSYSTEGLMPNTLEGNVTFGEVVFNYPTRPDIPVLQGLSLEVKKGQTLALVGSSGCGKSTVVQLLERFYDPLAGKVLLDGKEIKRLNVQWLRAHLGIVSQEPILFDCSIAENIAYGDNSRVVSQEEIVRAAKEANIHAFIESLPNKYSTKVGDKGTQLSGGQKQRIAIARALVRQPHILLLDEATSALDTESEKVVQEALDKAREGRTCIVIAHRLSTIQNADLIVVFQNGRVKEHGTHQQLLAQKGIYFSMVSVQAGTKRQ
# [5] = target: MRP2 (Homo sapiens, UniProt Q92887); details: efflux transporter; cited from earlier work
# Chain of MRP2 (Q92887 whole entry): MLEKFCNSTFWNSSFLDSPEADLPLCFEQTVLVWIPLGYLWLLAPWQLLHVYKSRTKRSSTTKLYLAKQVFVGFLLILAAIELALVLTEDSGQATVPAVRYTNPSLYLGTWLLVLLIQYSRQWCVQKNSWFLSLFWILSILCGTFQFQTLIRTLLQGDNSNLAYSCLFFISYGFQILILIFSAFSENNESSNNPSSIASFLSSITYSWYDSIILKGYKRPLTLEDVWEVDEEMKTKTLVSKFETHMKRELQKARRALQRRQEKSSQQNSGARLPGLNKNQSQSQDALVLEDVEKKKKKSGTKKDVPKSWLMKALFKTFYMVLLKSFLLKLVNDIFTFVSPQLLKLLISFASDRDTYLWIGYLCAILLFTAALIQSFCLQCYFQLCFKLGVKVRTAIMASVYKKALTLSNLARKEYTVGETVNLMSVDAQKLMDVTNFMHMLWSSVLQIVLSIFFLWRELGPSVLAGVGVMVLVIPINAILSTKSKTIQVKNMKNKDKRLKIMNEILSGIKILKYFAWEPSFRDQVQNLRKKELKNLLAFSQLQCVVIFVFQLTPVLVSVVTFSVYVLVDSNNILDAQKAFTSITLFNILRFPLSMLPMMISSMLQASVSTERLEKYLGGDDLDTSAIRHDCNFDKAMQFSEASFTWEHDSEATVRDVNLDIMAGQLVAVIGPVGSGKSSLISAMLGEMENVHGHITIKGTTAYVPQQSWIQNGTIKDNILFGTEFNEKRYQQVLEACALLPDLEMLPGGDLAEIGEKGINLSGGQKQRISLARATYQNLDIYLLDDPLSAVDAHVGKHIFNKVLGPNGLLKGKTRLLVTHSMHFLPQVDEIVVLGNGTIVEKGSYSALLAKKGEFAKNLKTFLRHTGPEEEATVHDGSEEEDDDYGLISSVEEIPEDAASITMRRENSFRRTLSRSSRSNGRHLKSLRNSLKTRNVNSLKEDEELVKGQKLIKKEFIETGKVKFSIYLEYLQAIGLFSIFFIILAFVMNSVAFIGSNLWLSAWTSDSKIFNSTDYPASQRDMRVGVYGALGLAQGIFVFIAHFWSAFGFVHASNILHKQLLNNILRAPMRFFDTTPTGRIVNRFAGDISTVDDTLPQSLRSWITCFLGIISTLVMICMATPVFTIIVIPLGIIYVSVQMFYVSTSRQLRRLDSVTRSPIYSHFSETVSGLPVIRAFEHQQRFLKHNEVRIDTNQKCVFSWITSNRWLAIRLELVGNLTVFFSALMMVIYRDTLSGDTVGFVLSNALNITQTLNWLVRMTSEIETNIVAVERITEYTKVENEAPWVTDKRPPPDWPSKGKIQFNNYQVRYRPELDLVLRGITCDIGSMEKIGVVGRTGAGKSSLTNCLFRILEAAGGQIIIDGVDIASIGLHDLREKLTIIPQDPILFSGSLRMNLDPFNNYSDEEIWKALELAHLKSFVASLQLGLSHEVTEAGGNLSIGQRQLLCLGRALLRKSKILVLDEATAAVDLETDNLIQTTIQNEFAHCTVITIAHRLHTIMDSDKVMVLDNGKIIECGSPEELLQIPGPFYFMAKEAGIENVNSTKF
# [6] = target: T1, OATP1B1 (Homo sapiens, UniProt Q9Y6L6); details: uptake transporter; cited from earlier work
# T1 sequence (Q9Y6L6 1-691): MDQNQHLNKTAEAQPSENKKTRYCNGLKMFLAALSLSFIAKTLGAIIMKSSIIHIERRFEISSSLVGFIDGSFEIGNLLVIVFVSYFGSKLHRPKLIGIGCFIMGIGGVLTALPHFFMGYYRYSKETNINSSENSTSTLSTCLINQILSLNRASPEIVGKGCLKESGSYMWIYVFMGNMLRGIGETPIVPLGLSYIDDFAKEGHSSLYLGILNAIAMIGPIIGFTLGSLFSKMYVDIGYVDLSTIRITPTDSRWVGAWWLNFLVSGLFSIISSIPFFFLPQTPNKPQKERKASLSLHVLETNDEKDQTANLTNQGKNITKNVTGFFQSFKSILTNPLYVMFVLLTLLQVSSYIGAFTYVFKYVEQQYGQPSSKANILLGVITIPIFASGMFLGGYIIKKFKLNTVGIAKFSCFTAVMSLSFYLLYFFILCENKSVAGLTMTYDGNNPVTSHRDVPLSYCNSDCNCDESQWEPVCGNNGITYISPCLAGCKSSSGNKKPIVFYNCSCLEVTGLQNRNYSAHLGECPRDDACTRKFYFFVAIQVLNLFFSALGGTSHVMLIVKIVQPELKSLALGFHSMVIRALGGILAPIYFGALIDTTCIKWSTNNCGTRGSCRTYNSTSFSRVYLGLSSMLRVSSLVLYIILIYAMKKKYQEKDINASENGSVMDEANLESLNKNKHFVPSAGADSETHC
# [7] = prior drug-drug interaction study, Digoxin a pgp-substrate; cited from earlier work
# [8] = target: BSEP (Homo sapiens, UniProt O95342); details: efflux transporter; cited from earlier work
# Chain of BSEP (O95342 whole entry): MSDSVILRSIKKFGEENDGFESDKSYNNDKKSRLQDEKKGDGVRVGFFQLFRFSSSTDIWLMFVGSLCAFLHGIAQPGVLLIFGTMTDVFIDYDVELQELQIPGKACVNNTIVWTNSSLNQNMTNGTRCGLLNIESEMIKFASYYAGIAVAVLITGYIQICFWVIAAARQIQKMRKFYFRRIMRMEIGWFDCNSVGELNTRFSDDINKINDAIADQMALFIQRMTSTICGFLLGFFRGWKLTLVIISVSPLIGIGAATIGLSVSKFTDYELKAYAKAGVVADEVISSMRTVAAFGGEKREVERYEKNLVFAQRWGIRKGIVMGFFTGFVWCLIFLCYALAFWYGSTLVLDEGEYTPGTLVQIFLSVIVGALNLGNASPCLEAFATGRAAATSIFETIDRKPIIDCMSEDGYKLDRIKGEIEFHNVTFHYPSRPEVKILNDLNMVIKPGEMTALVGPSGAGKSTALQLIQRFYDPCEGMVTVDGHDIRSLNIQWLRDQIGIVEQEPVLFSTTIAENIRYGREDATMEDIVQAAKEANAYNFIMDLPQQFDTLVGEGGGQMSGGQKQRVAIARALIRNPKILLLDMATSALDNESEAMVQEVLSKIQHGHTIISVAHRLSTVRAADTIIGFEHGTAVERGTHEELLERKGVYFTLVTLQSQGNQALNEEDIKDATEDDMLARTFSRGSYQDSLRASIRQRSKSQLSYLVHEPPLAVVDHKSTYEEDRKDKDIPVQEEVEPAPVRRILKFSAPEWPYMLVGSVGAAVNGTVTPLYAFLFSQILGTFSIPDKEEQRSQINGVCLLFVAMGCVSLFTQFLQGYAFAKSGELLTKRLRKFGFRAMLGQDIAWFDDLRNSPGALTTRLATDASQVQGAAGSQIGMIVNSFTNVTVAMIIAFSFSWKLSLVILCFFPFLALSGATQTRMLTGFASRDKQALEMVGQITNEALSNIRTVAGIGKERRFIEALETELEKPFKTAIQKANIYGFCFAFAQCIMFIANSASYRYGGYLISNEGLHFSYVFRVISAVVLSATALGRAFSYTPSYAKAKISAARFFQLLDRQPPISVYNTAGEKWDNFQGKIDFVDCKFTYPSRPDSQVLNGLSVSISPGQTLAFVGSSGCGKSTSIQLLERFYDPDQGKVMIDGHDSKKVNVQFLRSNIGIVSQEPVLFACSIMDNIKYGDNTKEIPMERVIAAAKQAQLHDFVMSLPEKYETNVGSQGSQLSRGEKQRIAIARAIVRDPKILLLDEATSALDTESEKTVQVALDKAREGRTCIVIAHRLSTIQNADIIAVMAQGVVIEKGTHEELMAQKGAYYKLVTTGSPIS
exposure increase caused by Odalasvir ([1]; DDI study results) [×],exposure increase caused by SMV ([1]; DDI study results),change of exposure on increasing Compound (III) dose from 400 to 800 mg ([2]; HCV GT 1 patients),"exposure increase, effect of the three Compounds ([1]; DDI study results) [×]",increase of exposure with the combination of the three drugs ([1]; human in vivo study) [times],"observed exposure in Cohort 1 / group (i) versus anticipated ([2]; Compound (III) 400 mg, ODV 50 mg QD, SMV 100 mg QD)",decrease of exposure on reducing Simeprevir dosing from 100 mg to 75 mg QD ([2]; in vivo),SMILES,increase in Rosuvastatin exposure [3] [fold],effect of Compound (III) on exposure / bioavailability ([1]; human subjects),in vitro inhibition of P-gp [4],in vitro inhibition of MRP2 [5],in vitro inhibition of OATP1B1 [6],increase in exposure of Digoxin [7] [%],in vitro inhibition of BSEP [8]
1.5,no apparent effect,less than proportionally,–,–,–,–,C[C@]1(O)[C@H](n2ccc(=O)[nH]c2=O)O[C@](F)(CO)[C@H]1O [Compound A-1],–,–,–,–,–,–,–
2.6,1.6 ×,–,–,–,–,–,C[C@H](NP(=O)(O)OC[C@@]1(F)O[C@@H](n2ccc(=O)[nH]c2=O)[C@](C)(O)[C@@H]1O)C(=O)O [Compound A-3],–,–,–,–,–,–,–
1.6,–,–,1.6,1.6,higher than anticipated,less than proportionally,"COc1ccc2c(O[C@@H]3C[C@H]4C(=O)N[C@]5(C(=O)NS(=O)(=O)C6CC6)C[C@H]5/C=C\CCCCN(C)C(=O)[C@@H]4C3)cc(-c3nc(C(C)C)cs3)nc2c1C [SMV, Simeprevir, reference compound]",3,no apparent effect; also recorded: does not alter,strong/moderate,strong/moderate,strong in vitro inhibition,35,strong/moderate
